# Measured values reported in patent US11976073B2, “Bicyclic amines as CDK2 inhibitors” (Incyte Corporation, priority 2021, dated 2024).
# Legend:
# CDK2/Cyclin E1 = target: T1, CDK2/Cyclin E1 (Homo sapiens, UniProt P24941); experiment: CDK2/Cyclin E1 HTRF enzyme activity assay; format: biochemical; settings: 1 mM ATP
# T1 construct: utilize full-length human CDK2 co-expressed as N-terminal GST-tagged protein; GST (N); purchased Carna 04-165; host or cells: baculovirus expression system
# Description: Example A. CDK2/Cyclin E1 HTRF Enzyme Activity Assay
# CDK2/Cyclin E1 enzyme activity assays utilize full-length human CDK2 co-expressed as N-terminal GST-tagged protein with FLAG-Cyclin E1 in a baculovirus expression system (Carna Product Number 04-165). Assays were conducted in white 384-well polystyrene plates in a final reaction volume of 8 μL. CDK2/Cyclin E1 (0.25 nM) was incubated with the compounds of the Examples (40 nL serially diluted in DMSO) in the presence of ATP (50 μM or 1 mM) and 50 nM ULight™-labeled eIF4E-binding protein 1 (THR37/46) peptide (PerkinElmer) in assay buffer (containing 50 mM HEPES pH 7.5, 1 mM EGTA, 10 mM MgCl2, 2 mM DTT, 0.05 mg/mL BSA, and 0.01% Tween 20) for 60 minutes at room temperature. The reactions were stopped by the addition of EDTA and Europium-labeled anti-phospho-4E-BP1 antibody (PerkinElmer), for a final concentration of 15 mM and 1.5 nM, respectively. HTRF signals were read after 1 hour at room temperature on a PHERAstar FS plate reader (BMG Labtech). Data was analyzed with IDBS XLFit and GraphPad Prism 5.0 software using a three or four parameter dose response curve to determine IC50 for each compound.
# CDK2 = CDK2 (Homo sapiens, UniProt P24941); experiment: Enzymatic binding data against CDK2 (comparison of isomeric peaks); format: biochemical; settings: Peak 1 vs Peak 2 of Example 2, TFA salts
# Description: To a solution of 6-(1-(1-ethoxyethyl)-1H-pyrazol-4-yl)-5-(1-(trifluoromethyl)cyclobutoxy)-[1,2,4]triazolo[…] (20 mg, 0.05 mmol) and 4-(methylsulfonyl)cyclohexan-1-one (26 mg, 0.15 mmol) in DCE (0.8 mL) was added TFA (0.2 mL) and sodium triacetoxyborohydride (31 mg, 0.15 mmol) and the resulting solution was stirred at 60° C. After 4 h, a second aliquot of 4-(methylsulfonyl)cyclohexan-1-one (13 mg, 0.08 mmol) and sodium triacetoxyborohydride (15 mg, 0.08 mmol) was added and stirring was continued overnight at 60° C. The volatiles were removed and the residue was dissolved in CH3CN and purified by prep-HPLC (Sunfire C18 column, eluting with a gradient of 21% to 39% acetonitrile/water containing 0.1% TFA over 12 minutes at a flow rate of 60 mL/min) to afford two isomeric peaks as their TFA salts. Peak 1 eluted at 8.8 min and Peak 2 eluted at 9.9 min. […] LC-MS calculated for C20H25F3N7O3S (M+H)^+: m/z=500.2; found 500.2.
SMILES,IC50 (CDK2/Cyclin E1) [nM],relative activity of the isomeric peaks against CDK2 (CDK2)
"CC(C)Oc1c(-c2cn[nH]c2)ncn2nc(NC3CCC(S(C)(=O)=O)CC3)nc12 (single isomer, unassigned) [Example 1, 8-Isopropoxy-N-(4-(methylsulfonyl)cyclohexyl)-7-(1H-pyrazol-4-yl)-[1,2,4]triazolo[1,5-c]pyrimidin-2-amine]",≤ 10,–
"CS(=O)(=O)C1CCC(Nc2nc3cnc(-c4cn[nH]c4)c(OC4(C(F)(F)F)CCC4)n3n2)CC1 (single isomer, unassigned) [Example 2, N-(4-(Methylsulfonyl)cyclohexyl)-6-(1H-pyrazol-4-yl)-5-(1-(trifluoromethyl)cyclobutoxy)-[1,2,4]triazolo[1,5-a]pyrazin-2-amine]",≤ 10,more active isomer
